In ChEMBL document CHEMBL1201862, “PubChem BioAssay data set” (2004) one finds IC50, EC50 and AC50 data, which are given here for 8 molecules.

The target in one assay is NADPH oxidase 1 (Homo sapiens, UniProt Q9Y5S8). Briefly: Late-stage luminescence-based cell-based dose response assay to identify inhibitors of NADPH oxidase 1 (NOX1): Purchased analogs 2. The assay is classed as functional.
The target of assay [1] is T1, Tyrosine-protein phosphatase non-receptor type 7 (Homo sapiens, UniProt P35236).
T1 sequence (P35236 whole entry): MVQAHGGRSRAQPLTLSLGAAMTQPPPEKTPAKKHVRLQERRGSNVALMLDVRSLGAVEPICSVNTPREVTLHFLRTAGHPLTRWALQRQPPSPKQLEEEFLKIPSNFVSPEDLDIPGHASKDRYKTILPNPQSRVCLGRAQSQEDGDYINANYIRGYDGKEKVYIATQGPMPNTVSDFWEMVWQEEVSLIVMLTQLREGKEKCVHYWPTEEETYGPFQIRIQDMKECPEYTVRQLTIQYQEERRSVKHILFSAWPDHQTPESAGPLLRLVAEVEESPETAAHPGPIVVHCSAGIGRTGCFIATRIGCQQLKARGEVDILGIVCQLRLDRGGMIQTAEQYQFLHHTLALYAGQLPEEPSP
Briefly: inhibitors of human HePTP phosphatase, […], biochemical, absorbance, leukemia target (AID 521). The assay is classed as functional.

Assay [2] addresses T2, Beta-2 adrenergic receptor (Homo sapiens, UniProt P07550). Briefly: Dose response for HTS for Beta-2AR agonists via FAP method from Powderset1. The assay is classed as functional.
The target of assay [3] is T2, Beta-2 adrenergic receptor. Briefly: beta2AR agonists driving receptor internalization, dose response, cell-based, FAP fluorogen, flow cytometry, cherry pick 1 (AID 588763). The assay is classed as functional.
The target of assay [4] is Muscarinic acetylcholine receptor M1 (Rattus norvegicus, UniProt P08482). Briefly: rat M1 positive allosteric modulator potency, dose response, cell-based, calcium mobilization, CHO-K1, ACh EC20 (AID 2425). The assay is classed as functional.
Muscarinic acetylcholine receptor M1, sequence (P08482 whole entry): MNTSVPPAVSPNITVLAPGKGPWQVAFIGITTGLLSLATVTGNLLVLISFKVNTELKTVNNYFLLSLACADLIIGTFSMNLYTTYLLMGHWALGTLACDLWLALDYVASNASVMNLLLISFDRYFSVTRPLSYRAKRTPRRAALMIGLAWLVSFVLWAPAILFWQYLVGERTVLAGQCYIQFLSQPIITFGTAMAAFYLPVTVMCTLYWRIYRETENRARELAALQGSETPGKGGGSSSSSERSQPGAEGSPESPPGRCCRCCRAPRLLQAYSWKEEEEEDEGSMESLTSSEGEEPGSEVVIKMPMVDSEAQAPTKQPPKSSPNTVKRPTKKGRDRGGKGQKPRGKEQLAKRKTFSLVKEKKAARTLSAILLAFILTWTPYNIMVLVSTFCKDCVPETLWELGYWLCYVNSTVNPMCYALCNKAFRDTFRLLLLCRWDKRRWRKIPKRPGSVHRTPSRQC
A short description of assay [5]: P. falciparum Dd2 growth inhibitors, dose response, SYBR Green, dry powder samples, set 9 (AID 1159568). The assay is classed as functional, cell-based.
In another assay the target is Paired box protein Pax-8 (Homo sapiens, UniProt Q06710). Briefly: inhibitors of PAX8-driven TPO luciferase reporter, dose response, RMG-I cells, cherry-pick (AID 687027).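 Also: luciferase reporter driven by Pax8 target thyroperoxidase promoter measured by SteadyGlo luminescence.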 The class given is functional, cell-based.
Paired box protein Pax-8, sequence (Q06710 whole entry): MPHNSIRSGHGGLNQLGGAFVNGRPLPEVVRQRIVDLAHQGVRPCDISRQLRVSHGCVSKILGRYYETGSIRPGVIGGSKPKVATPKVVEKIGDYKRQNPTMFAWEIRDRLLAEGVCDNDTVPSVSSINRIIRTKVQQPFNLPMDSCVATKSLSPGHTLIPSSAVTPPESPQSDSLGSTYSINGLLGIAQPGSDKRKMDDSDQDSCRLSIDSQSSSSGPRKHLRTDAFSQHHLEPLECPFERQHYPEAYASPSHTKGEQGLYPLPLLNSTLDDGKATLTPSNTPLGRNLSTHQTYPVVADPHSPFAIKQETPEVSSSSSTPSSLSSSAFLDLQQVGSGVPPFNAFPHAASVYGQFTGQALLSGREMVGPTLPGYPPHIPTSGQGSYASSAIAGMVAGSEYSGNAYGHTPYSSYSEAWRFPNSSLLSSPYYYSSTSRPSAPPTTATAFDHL
Assay [6] is described as follows: PAX2 cell-based inhibition, dose response, selectivity assay for PAX8 inhibitor project, plate reader, dry powder samples (AID 743048).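 Also: HEK293 cells carrying a WT1 promoter luciferase reporter driven by expressed Pax2; potency is for inhibition of Pax2 driven reporter signal.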 The class given is functional.
Assay [7] in a line: PAX5 activity inhibitors, dose response, selectivity assay for PAX8 inhibitor project, cell-based, plate reader, dry powder samples (AID 743047).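 Also: HEK293 cells carrying a Pax5 driven CD19 promoter luciferase reporter; potency of inhibitors that lower reporter luminescence.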 The assay is classed as functional.
Assay [8] can be described thus: cytotoxicity dependent on PAX8, dose response, cell-based, plate reader, dry powder (AID 743049). The class given is functional.
Assay [9] can be described thus: half-maximal inhibitory concentration for glucagon-like peptide-1 release, STC-1 cell line, dose-response (AID 1117345). The class given is functional, cell-based.
Assay [10] in a line: Glucagon-like peptide 1 release potency, NCI-H716 cell line, dose-response, half-maximal inhibitory concentration (AID 1117344). The class given is functional, cell-based.
Assay [11] can be described thus: P. falciparum 3D7-ScDHODH growth inhibitors, dose response, SYBR Green, dry powder samples (AID 1159570).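 Also: parasite growth measured after 72 hours of compound exposure.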 The assay is classed as functional, cell-based.
Assay [12] can be described thus: HepG2 cell cytotoxicity, dose response, cytotoxicity control, plate reader, dry powder samples (AID 1159569).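 Also: inhibitor potency with signal falling toward the positive control level.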 The assay is classed as functional, cell-based.
A short description of assay [13]: P. falciparum Dd2 growth inhibitors, dose response, SYBR Green, cherry-picked samples (AID 1159567). The assay is classed as functional, cell-based.
A short description of assay [14]: P. falciparum Dd2 growth inhibitors, dose response, SYBR Green, dry powder samples (AID 1159566).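 Also: potency for growth inhibition with lower SYBR green DNA signal.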 The assay is classed as functional, cell-based.
Assay [15] can be described thus: P. falciparum ATP4 D1247Y mutant growth inhibitors, dose response, NITD609-resistant line, SYBR Green, dry powder (AID 1159571).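 Also: parasites synchronized at ring stage by sorbitol before testing.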 The assay is classed as functional, cell-based.
Assay [16] can be described thus: Dose-response inhibition of insulin secretion in a rat insulinoma line at 5 mM glucose (AID 1117331). The assay is classed as functional, cell-based. To be noted: INS-1E.
The next assay in a line: cells. The class given is functional, cell-based. The note with it: INS-1E.

Where “and” joins values, the source holds several entries; their conditions need not be identical. Equal values may be shown once. Calls of active or inactive are those of the source.

For orientation: IC50 means the concentration at which inhibition is half-maximal. Broadly, the EC50 is the concentration giving half of the maximal effect. One may read the AC50 as the concentration giving half of the maximal activity seen.

T2 sequence (P07550 whole entry): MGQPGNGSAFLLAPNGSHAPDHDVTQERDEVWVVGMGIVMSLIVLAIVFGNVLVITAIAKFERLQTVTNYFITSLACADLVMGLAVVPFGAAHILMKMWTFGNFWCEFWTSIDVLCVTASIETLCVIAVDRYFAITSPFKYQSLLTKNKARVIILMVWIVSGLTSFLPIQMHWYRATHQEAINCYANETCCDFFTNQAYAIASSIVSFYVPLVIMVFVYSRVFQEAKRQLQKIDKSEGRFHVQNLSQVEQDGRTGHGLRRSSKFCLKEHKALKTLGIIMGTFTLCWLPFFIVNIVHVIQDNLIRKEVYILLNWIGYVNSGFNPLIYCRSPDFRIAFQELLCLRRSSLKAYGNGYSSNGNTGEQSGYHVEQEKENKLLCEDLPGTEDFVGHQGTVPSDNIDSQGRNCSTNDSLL
NADPH oxidase 1, sequence (Q9Y5S8 whole entry): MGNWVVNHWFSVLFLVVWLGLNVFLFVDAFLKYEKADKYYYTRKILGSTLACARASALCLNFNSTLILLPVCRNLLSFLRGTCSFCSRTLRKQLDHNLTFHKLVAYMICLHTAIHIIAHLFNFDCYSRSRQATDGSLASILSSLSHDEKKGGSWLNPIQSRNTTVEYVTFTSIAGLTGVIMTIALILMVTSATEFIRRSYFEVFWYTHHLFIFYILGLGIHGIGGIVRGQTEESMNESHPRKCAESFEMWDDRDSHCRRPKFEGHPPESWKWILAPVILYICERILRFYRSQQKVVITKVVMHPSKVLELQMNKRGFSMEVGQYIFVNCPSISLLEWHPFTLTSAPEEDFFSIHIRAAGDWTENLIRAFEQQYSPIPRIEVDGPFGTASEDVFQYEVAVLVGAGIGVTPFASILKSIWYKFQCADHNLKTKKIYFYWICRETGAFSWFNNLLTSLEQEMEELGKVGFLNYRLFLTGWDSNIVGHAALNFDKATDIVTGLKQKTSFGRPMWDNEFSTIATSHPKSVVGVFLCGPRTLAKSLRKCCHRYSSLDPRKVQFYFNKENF

For the molecule `CN(CCO)c1ccc(/C=N/Nc2c(F)c(F)nc(F)c2F)cc1`, on NADPH oxidase 1, the 50% inhibitory concentration (IC50) was 1.11 µM (active).

For `Cc1ccc(OCC(=O)Nc2ccc(-c3nc4ncccc4o3)cc2)cc1`, the IC50 in [1] was > 100 µM (not active). The EC50 in assay [2] is 0.0155 µM (active); in assay [3], 31.6 nM (active) and 61.1 nM (active).

For the molecule `Cn1cc(-c2ccc(CN3C(=O)C(=O)c4ccccc43)c(F)c2)cn1`, the EC50 in assay [4] is 0.845 µM (active).

With `O=C(Nc1ccccc1F)N1CCCCN2[C@H](CO)[C@@H](c3ccc(/C=C/c4ccccc4)cc3)[C@@H]2C1`, the AC50 in [5] was 6.45 µM (active).

Consider `C[C@H](CO)N1C[C@H](C)[C@@H](CN(C)S(=O)(=O)c2ccc(-c3ccccc3)cc2)OCc2cn(nn2)CCCC1=O`, for which the AC50 was 3.99 µM (active) at Paired box protein Pax-8, > 70 µM (inactive) in assay [6], > 70 µM (inactive) in assay [7] and > 70 µM (inactive) in [8].

Turning to `c1ccc2sc(SSc3nc4ccccc4s3)nc2c1` [BENZOTHIAZYL DISULFIDE], the IC50 is 5.58 µM (inactive) in assay [9] and 9.23 µM (inactive) in assay [10].

`C[C@H](CO)N1C[C@H](C)[C@H](CN(C)S(=O)(=O)c2ccc(F)cc2)OCc2ccccc2-c2c(n(C)c3ccccc23)C1=O`: the AC50 in assay [11] is 0.572 µM (active); in assay [12], 7.35 µM (active); in [13], 1.1 µM (active); in assay [14] it was 0.36 µM (active); in [15] it was 0.481 µM (active).

`Cc1ccc(S(=O)(=O)NC(=O)NN2CCCCCC2)cc1` [TOLAZAMIDE]: the IC50 in [16] was 6.98 µM (inactive); in “cells”, > 33.3 µM (inactive).
